From ChEMBL document CHEMBL3621068, “Synthesis and biological evaluation of a new class of quinazolinoneazoles as potential antimicrobial agents and their interactions with calf thymus DNA and human serum albumin” (Medchemcomm, 2015)
Values after ≈ are worked out from the molar mass of the structure shown.

How the values were obtained:
Type in all cases: functional
Cyberlindnera jadinii = assay: Antifungal activity against Candida utilis ATCC 9950 after 24 hrs by micro broth dilution assay; conditions: Williopsis jadinii, ATCC 9950, 24 h
Candida albicans = assay: Antifungal activity against Candida albicans ATCC 10231 after 24 hrs by micro broth dilution assay; conditions: ATCC 10231, 24 h
Aspergillus flavus = assay: Antifungal activity against Aspergillus flavus ATCC 204304 after 24 hrs by micro broth dilution assay; conditions: ATCC 204304, 24 h
Escherichia coli = assay: Antibacterial activity against Escherichia coli DH52 after 24 hrs by micro broth dilution assay; conditions: DH52, 24 h
Staphylococcus aureus [1] = assay: Antibacterial activity against Staphylococcus aureus ATCC 25923 after 24 hrs by micro broth dilution assay; conditions: ATCC 25923, 24 h
Pseudomonas aeruginosa = assay: Antibacterial activity against Pseudomonas aeruginosa ATCC 27853 a after 24 hrs by micro broth dilution assay; conditions: ATCC 27853, 24 h
Bacillus spizizenii = assay: Antibacterial activity against Bacillus subtilis ATCC 6633 after 24 hrs by micro broth dilution assay; conditions: ATCC 6633, 24 h
Bacillus sp. = assay: Antibacterial activity against Bacillus proteus ATCC 13315 after 24 hrs by micro broth dilution assay; conditions: Bacillus sp. (in: firmicutes), ATCC 13315, 24 h
Micrococcus luteus = assay: Antibacterial activity against Micrococcus luteus ATCC 4698 after 24 hrs by micro broth dilution assay; conditions: ATCC 4698, 24 h
Saccharomyces cerevisiae = assay: Antifungal activity against Beer yeast ATCC 9763 after 24 hrs by micro broth dilution assay; conditions: ATCC 9763, 24 h
[2] = Antibacterial activity against Eberthella typhosa ATCC 14028 after 24 hrs by micro broth dilution assay; conditions: ATCC 14028, 24 h
Candida = assay: Antifungal activity against Candida mycoderma ATCC 9888 after 24 hrs by micro broth dilution assay; conditions: ATCC 9888, 24 h
Staphylococcus aureus [3] = assay: Antibacterial activity against methicillin-resistant Staphylococcus aureus N315 after 24 hrs by micro broth dilution assay; conditions: N315, 24 h

Compound | MIC (Cyberlindnera jadinii) | MIC (Candida albicans) | MIC (Aspergillus flavus) | MIC (Escherichia coli) | MIC (Staphylococcus aureus [1]) | MIC (Pseudomonas aeruginosa) | MIC (Bacillus spizizenii) | MIC (Bacillus sp.) | MIC (Micrococcus luteus) | MIC (Saccharomyces cerevisiae) | MIC [2] | MIC (Candida) | MIC (Staphylococcus aureus [3])
Cc1ncc([N+](=O)[O-])n1CCCCCn1cnc2cc(F)ccc2c1=O | 20 µM (≈ 7.19 µg/mL) | 40 µM (≈ 14.4 µg/mL) | 20 µM (≈ 7.19 µg/mL) | 40 µM (≈ 14.4 µg/mL) | 40 µM (≈ 14.4 µg/mL) | > 1420 µM | 20 µM (≈ 7.19 µg/mL) | 20 µM (≈ 7.19 µg/mL) | 20 µM (≈ 7.19 µg/mL) | 20 µM (≈ 7.19 µg/mL) | 20 µM (≈ 7.19 µg/mL) | 40 µM (≈ 14.4 µg/mL) | 20 µM (≈ 7.19 µg/mL)
O=c1c2ccc(F)cc2ncn1CCn1cncn1 | 990 µM (≈ 257 µg/mL) | 990 µM (≈ 257 µg/mL) | 990 µM (≈ 257 µg/mL) | 250 µM (≈ 64.8 µg/mL) | 990 µM (≈ 257 µg/mL) | 30 µM (≈ 7.78 µg/mL) | 490 µM (≈ 127 µg/mL) | 990 µM (≈ 257 µg/mL) | 30 µM (≈ 7.78 µg/mL) | 490 µM (≈ 127 µg/mL) | 990 µM (≈ 257 µg/mL) | 490 µM (≈ 127 µg/mL) | 490 µM (≈ 127 µg/mL)
O=c1c2ccc(Cl)cc2ncn1CCn1cncn1 | 460 µM (≈ 127 µg/mL) | 930 µM (≈ 256 µg/mL) | 930 µM (≈ 256 µg/mL) | 230 µM (≈ 63.4 µg/mL) | 930 µM (≈ 256 µg/mL) | 30 µM (≈ 8.27 µg/mL) | 460 µM (≈ 127 µg/mL) | 930 µM (≈ 256 µg/mL) | 30 µM (≈ 8.27 µg/mL) | 460 µM (≈ 127 µg/mL) | 930 µM (≈ 256 µg/mL) | 460 µM (≈ 127 µg/mL) | 460 µM (≈ 127 µg/mL)
O=c1c2ccc(Cl)cc2ncn1CCCCCBr | 390 µM (≈ 129 µg/mL) | > 1550 µM | > 1550 µM | 1550 µM (≈ 511 µg/mL) | > 1550 µM | > 1550 µM | 1550 µM (≈ 511 µg/mL) | 390 µM (≈ 129 µg/mL) | 390 µM (≈ 129 µg/mL) | 780 µM (≈ 257 µg/mL) | > 1550 µM | > 1550 µM | 780 µM (≈ 257 µg/mL)
O=c1c2ccc(Cl)cc2ncn1CCCCCCCCCCn1cnc([N+](=O)[O-])c1 | 150 µM (≈ 64.8 µg/mL) | 40 µM (≈ 17.3 µg/mL) | 150 µM (≈ 64.8 µg/mL) | 150 µM (≈ 64.8 µg/mL) | 300 µM (≈ 130 µg/mL) | 70 µM (≈ 30.2 µg/mL) | 40 µM (≈ 17.3 µg/mL) | 70 µM (≈ 30.2 µg/mL) | 40 µM (≈ 17.3 µg/mL) | 70 µM (≈ 30.2 µg/mL) | 300 µM (≈ 130 µg/mL) | 40 µM (≈ 17.3 µg/mL) | 150 µM (≈ 64.8 µg/mL)
O=c1c2ccc(Cl)cc2ncn1CCn1ccnc1 | 470 µM (≈ 129 µg/mL) | 930 µM (≈ 255 µg/mL) | 930 µM (≈ 255 µg/mL) | 1860 µM (≈ 511 µg/mL) | > 1860 µM | 930 µM (≈ 255 µg/mL) | > 1860 µM | 1860 µM (≈ 511 µg/mL) | 470 µM (≈ 129 µg/mL) | 930 µM (≈ 255 µg/mL) | > 1860 µM | > 1860 µM | 930 µM (≈ 255 µg/mL)
O=c1c2ccc(Cl)cc2ncn1CCCCCCn1cnc([N+](=O)[O-])c1 | 340 µM (≈ 128 µg/mL) | 40 µM (≈ 15 µg/mL) | 170 µM (≈ 63.9 µg/mL) | 170 µM (≈ 63.9 µg/mL) | 340 µM (≈ 128 µg/mL) | 340 µM (≈ 128 µg/mL) | 40 µM (≈ 15 µg/mL) | 90 µM (≈ 33.8 µg/mL) | 40 µM (≈ 15 µg/mL) | 90 µM (≈ 33.8 µg/mL) | 340 µM (≈ 128 µg/mL) | 40 µM (≈ 15 µg/mL) | 170 µM (≈ 63.9 µg/mL)
O=c1c2ccc(F)cc2ncn1CCCCCCBr | 390 µM (≈ 128 µg/mL) | 780 µM (≈ 255 µg/mL) | 1560 µM (≈ 510 µg/mL) | 780 µM (≈ 255 µg/mL) | > 1560 µM | > 1560 µM | 1560 µM (≈ 510 µg/mL) | 390 µM (≈ 128 µg/mL) | 390 µM (≈ 128 µg/mL) | 780 µM (≈ 255 µg/mL) | > 1560 µM | > 1560 µM | 390 µM (≈ 128 µg/mL)
O=c1c2ccc(F)cc2ncn1CCCCBr | 430 µM (≈ 129 µg/mL) | 860 µM (≈ 257 µg/mL) | 1710 µM (≈ 512 µg/mL) | 1710 µM (≈ 512 µg/mL) | > 1710 µM | > 1710 µM | 1710 µM (≈ 512 µg/mL) | 860 µM (≈ 257 µg/mL) | 860 µM (≈ 257 µg/mL) | 860 µM (≈ 257 µg/mL) | > 1710 µM | > 1710 µM | 430 µM (≈ 129 µg/mL)
O=c1c2ccc(Cl)cc2ncn1CCCCn1cnc([N+](=O)[O-])c1 | 370 µM (≈ 129 µg/mL) | 90 µM (≈ 31.3 µg/mL) | 740 µM (≈ 257 µg/mL) | 740 µM (≈ 257 µg/mL) | 370 µM (≈ 129 µg/mL) | 740 µM (≈ 257 µg/mL) | 50 µM (≈ 17.4 µg/mL) | 370 µM (≈ 129 µg/mL) | 50 µM (≈ 17.4 µg/mL) | 90 µM (≈ 31.3 µg/mL) | 370 µM (≈ 129 µg/mL) | 740 µM (≈ 257 µg/mL) | 180 µM (≈ 62.6 µg/mL)
O=c1c2ccc(Cl)cc2ncn1CCCCCCBr | 740 µM (≈ 254 µg/mL) | > 1490 µM | > 1490 µM | 1490 µM (≈ 512 µg/mL) | > 1490 µM | > 1490 µM | 1490 µM (≈ 512 µg/mL) | 740 µM (≈ 254 µg/mL) | 370 µM (≈ 127 µg/mL) | 740 µM (≈ 254 µg/mL) | > 1490 µM | > 1490 µM | 740 µM (≈ 254 µg/mL)
O=c1c2ccc(Cl)cc2ncn1CCCCBr | 410 µM (≈ 129 µg/mL) | > 1620 µM | > 1620 µM | 810 µM (≈ 256 µg/mL) | > 1620 µM | > 1620 µM | 1620 µM (≈ 511 µg/mL) | 410 µM (≈ 129 µg/mL) | 810 µM (≈ 256 µg/mL) | 810 µM (≈ 256 µg/mL) | > 1620 µM | > 1620 µM | 810 µM (≈ 256 µg/mL)
